Measurements as given in ChEMBL document CHEMBL5131558, “Fluorescent PARP Inhibitors Applied To Intracranial Glioblastoma: Accumulation and Persistence In Vivo” (ACS Med Chem Lett, 2022).

Tests used:
MDA-MB-231 [1] = test: Cytotoxicity against human MDA-MB-231 cells assessed as reduction in cell viability incubated for 72 hrs by alamar blue assay; assay type: functional, cell-based; conditions: MDA-MB-231, 72 h
[2] = Drug uptake in liver of mouse xenografted with human U87 MG cells at 25 nmol, iv measured after 24 hrs by fluorescence imaging analysis; assay type: ADME, organism-based, U-87MG ATCC; conditions: in vivo
[3] = Drug uptake in tumor of mouse xenografted with human U87 MG cells assessed as increase in fluorescence signal at 25 nmol, iv measured after 24 hrs by […] imaging method; assay type: ADME, organism-based, Neoplasm, U-87MG ATCC; conditions: in vivo
MDA-MB-231 [4] = test: Inhibition of PARP production in human MDA-MB-231 cells preincubated for 24 hrs followed by H2O2 addition and measured over 15 mins; assay type: cell-based; conditions: dose 0.001-10 µM, time 1455.0 min, DDE = dose-dependent effect
U-87 MG [5] = test: Cytotoxicity against human U87 cells assessed as reduction in cell viability incubated for 72 hrs by alamar blue assay; assay type: functional, cell-based, U-87MG ATCC
[6] = Half life of the compound; assay type: physicochemical
U-87 MG [7] = test: Cytotoxicity against human U87 cells assessed as reduction in cell viability incubated for 72 hrs in presence of rAOC-Rib by alamar blue assay; assay type: functional, cell-based, U-87MG ATCC
U87 = test: Inhibition of PARP production in human U87 cells preincubated for 24 hrs followed by H2O2 addition and measured over 15 mins; assay type: cell-based; conditions: dose 0.1-10 µM, time 1455.0 min, DDE = dose-dependent effect

Structure (SMILES) | IC50 (MDA-MB-231 [1]) [µM] | IC50 (U-87 MG [5]) [µM] | other results
CN(Cc1ccc(-c2[nH]c3cc(F)cc4c3c2CCNC4=O)cc1)C(=O)CCCCCN1/C(=C/C=C2\CCCC(/C=C/C3=[N+](CCCCCC(=O)O)c4ccccc4C3(C)C)=C2Cl)C(C)(C)c2ccccc21 | 13 | 15 | Drug uptake [2]: Active; Drug uptake [3]: Active; inhibition (MDA-MB-231 [4]): Dde
CC1(C)C(/C=C/C2=C(Cl)C(=C/C=C3/N(CCCCCC(=O)O)c4ccccc4C3(C)C)/CCC2)=[N+](CCCCCC(=O)O)c2ccccc21 | – | 27 | half-life [6]: 30 min; IC50 (U-87 MG [7]): 28 µM
CN(Cc1ccc(-c2[nH]c3cc(F)cc4c3c2CCNC4=O)cc1)C(=O)CCCCCCCNC(=O)CCCCCN1/C(=C/C=C2\CCCC(/C=C/C3=[N+](CCCCCC(=O)O)c4ccccc4C3(C)C)=C2Cl)C(C)(C)c2ccccc21 | – | 12 | inhibition (U87): Dde
CN(CCCCCCCCN)Cc1ccc(-c2[nH]c3cc(F)cc4c3c2CCNC4=O)cc1 | – | 79 | –
CNCc1ccc(-c2[nH]c3cc(F)cc4c3c2CCNC4=O)cc1 [RUCAPARIB] | 39 | 20 | –
